Results reported in patent US7807396B2, “Insulin degrading enzyme assays for treatment of alzheimer's disease” (University of Kentucky Research Foundation, priority 2000, dated 2010).

Tests used:
[1] = system: primary rat cortical neurons; test: Neuroprotection / neurotoxicity assay in primary rat cortical neurons; format: cell-based
Protocol: Neurotoxicity assays were performed as described by Estus et. al. (Estus et al. (1997) J Neurosci 17:7736-7745) using embryonic day 18 rat fetuses to establish primary rat cortical neuron cultures. Rat brain cortical cells were initially cultured in AM0 media for 3-5 hrs in 16 well chamber slides (Nalge Nunc International, Rochester, N.Y.) pre-coated with polyethyleneimine at a density of ˜1×10^5 cells per well. The culture was enriched in neurons by replacement of the AM0 media with Dulbecco's modified Eagle's medium (DMEM, Life Technologies, Rockville, Md.) containing 100 units/ml penicillin, 100 μg/ml streptomycin and 2% B27 serum supplement (Life Technologies, Rockville, Md.).
Cells were treated with Aβ peptides and then fixed with 4% paraformaldehyde for 15 min. at room temperature. After washing the cells with PBS they were then stained with Hoechst 33258 at 1 μg/ml for 10 minutes. Neurons were then visualized by fluorescence microscopy. Those cells with uniformly dispersed chromatin were scored as survivors, while those cells containing condensed chromatin were scored as non-survivors. Readings were typically taken in triplicate with a minimum of 250 neurons scored from each well. Cells treated as described above were visualized using a Nikon microscope equipped with a Hoffman modulation contrast lens. Statistical analysis was performed on the samples using ANOVA.
To test this, rat cortical neurons were treated with Aβ peptides in the presence and absence of insulysin. Preliminary experiments were performed to obtain a suitable Aβ peptide concentration that would show a significant cytotoxic effect, as there are batch to batch variations in the ability of the Aβ peptides to mediate cytotoxic effects on cells in culture.
The cell based assay using primary rat cortical neurons was used to determine whether the insulysin cleavage products of the Aβ peptides were themselves neurotoxic. Recombinant insulysin at concentrations ranging from 0.5 to 5000 ng was added simultaneously with the Aβ peptides to the cortical cultures.

[2] = system: neprilysin; test: Neprilysin enzyme activity in rat brain tissue lysates, two-step assay; format: in vivo; details: 17β-estradiol pellets, 3 weeks
Protocol: Adult female Sprague-Dawley rats (approximate weight 300 grams) were used to study the effects of ovariectomy and estradiol supplementation on neprilysin expression levels and activity. […] Ovariectomy was performed at 13 weeks of age and sham-surgery was performed on littermate animals to provide a control group. For estrogen replacement groups, ovariectomized animals were implanted with 17β-estradiol pellets (Innovative Research of America, Sarasota, Fla., USA). Rats were killed 3 weeks later after implantation. The brains were rapidly removed, quickly frozen over dry ice, and stored at −80° C. until father processing. […] The brains were used either for in situ hybridization or for neprilysin activity measurements as noted above.
In this assay glutaryl-Ala-Phe-4-methoxy-2-naphthylamide is cleaved to glutaryl-Ala-Ala and Phe-4-methoxy-2-naphthylamide. An aminopetidase is then used to cleave the Phe-4-methoxy-2-naphthylamide releasing fluorescent 4-methoxy-2-naphthylamine which is quantified on a spectrofluorometer.
The tissue lysates were evaluated for neprilysin enzymatic activity using a two-step chromogenic assay. […] The 4-methoxy-2-naphthylamine was quantified spectrofluorimetrically at an excitation wavelength of 340 nm and an emission wavelength of 425 nm. […]

[3] = system: neprilysin mRNA; test: In situ hybridization of neprilysin mRNA in hippocampus of ovariectomized rats; format: in vivo, rat; details: 17β-estradiol pellets, 3 weeks
Excerpt: Using in situ hybridization we administered antisense probes for each of exons 1, 2, 3, and 4 (R1, R2, R3 and R4, respectively) to the brains of ovariectomized rats, some of which also received estrogen replacement therapy. Adult female Sprague-Dawley rats (approximate weight 300 grams) were used to study the effects of ovariectomy and estradiol supplementation on neprilysin expression levels and activity. In situ hybridization was used to measure neprilysin mRNA levels while a coupled chromogenic assay [Li, C. and Hersh, L. B. Neprilysin: Assay Methods, Purification and Characterization. Methods in Enzymology. 248, 253-263 (1995)] was used to measure neprilysin activity. […]
Images on autoradiographic film were analyzed with computer-aided densitometry (MCID-M1, Imaging Research, St. Catharines, Ontario, Canada). Optical density values of the [^14C] microscales were obtained and a correlating log-log linear least-squares fit was calculated (r^2>0.99). […] The optical density of each defined region was determined for the neuronal somal layer of area CA1 (stratum pyramidale), CA3 and dentate gyrus (stratum granulosum). Identification of brain regions was determined using the atlas of Paxinos and Watson (G. Paxinos, C. Watson, The rat Brain in Stereotaxic Coordinates, second Edition, Academic Press, Australia, 1986).

[4] = biological target: T1, insulysin (Rattus norvegicus, UniProt P35559); test: Insulysin activity with fluorogenic peptide Abz-[…]-EDDnp; format: biochemical; details: increasing concentrations of the peptide
T1 construct: His6 (N); made in house; host or cells: Sf9 cells, baculovirus (pFASTBAC)
Protocol: Referring to FIG. 16, the effect of increasing the concentration of the peptide dynorphin B-9 on insulysin activity is shown. Insulysin activity was measured with the fluorogenic peptide Abz-[…]-EDDnp (SEQ ID No: 14) in the presence of increasing concentrations of the peptide. This peptide contains the fluorescent […] (Abz) which is internally quenched by the 2,4-dinitrophenyl moiety.
Referring to FIG. 17, the effect of increasing the concentration of several different peptides on insulysin activity is summarized. Insulysin activity was measured with the fluorogenic peptide Abz-[…]-EDDnp (SEQ ID NO: 14) in the presence of increasing concentrations of the peptide.

[5] = system: rat brain hippocampal neurons; test: Hippocampal cell survival with Aβ1-42 with or without insulysin; format: cell-based
Excerpt: In order to determine whether the insulysin cleavage of Aβ peptides produces products which in themselves are neurotoxic, we conducted experiments using cultured primary hippocampal cells. […] An inactivated form of insulysin was used as a control.
Viable cells were detected by microscopy.
Neuronal survival was estimated as a function of time.

[6] = biological target: T2, pre-aggregated Aβ1-40 (Homo sapiens, UniProt P05067); test: Degradation of pre-aggregated 125I-Aβ1-40 deposited onto synthetic amyloid; format: biochemical; details: 24 hr incubation with 5 μg of insulysin
T2 construct: purchased Amersham (125I-Aβ); QCB/BioSource (synthaloid plates)
Excerpt: During the progression of Alzheimer's disease monomeric Aβ peptides are deposited onto senile plaques. To test whether insulysin is able to prevent the deposition of the Aβ1-40 peptide, a model system was used in which the deposition of radiolabeled Aβ1-40 onto a synthetic amyloid plaque (synthaloid) is followed (Esler et al. (1999) Methods Enzymol 309:350-74). […] We also conducted an experiment in which ^125I-Aβ1-40 was first deposited onto the synthetic amyloid and then treated with insulysin to see if the enzyme could degrade pre-aggregated Aβ1-40.

[7] = biological target: T3, β-endorphin (Homo sapiens, UniProt P01189); test: Insulysin activity determination, disappearance of β-endorphin by HPLC; format: biochemical; details: 30 μM β-endorphin, 37° C.
T3 construct: Human β-endorphin1-31; purchased National Institute on Drug Abuse drug supply system
T3 sequence (P01189 237-267): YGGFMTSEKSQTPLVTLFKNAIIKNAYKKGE
Protocol: Materials. […] Solutions were prepared by dissolving the peptide in dimethylsulfoxide (DMSO) to give a stock concentration of 200 μM. The peptide stock was lyophilized and stored at −80° C. until use. The aggregation state of Aβ peptide stock solutions was checked by electron microscopy (Ray et al. (2000) Brain Res 853:344-351) and found to be predominantly, if not exclusively, monomeric. For the in vitro reactions with insulysin, a final concentration of 25 μM Aβ1-40 was obtained after bringing the lyophilized peptide into solution with double distilled water. […] Human β-endorphin1-31, obtained from the National Institute on Drug Abuse drug supply system, was dissolved in water to give a stock solution of 300 μM. Trifluoroacetic acid (Sigma Biochemicals, St. Louis, Mo.) was diluted into water to produce a 5% working solution.
Insulysin activity was assayed by measuring the disappearance of β-endorphin by isocratic reverse phase HPLC (Safavi et al. (1996) Biochemistry 1996 35:14318-14325). A 100 μl reaction mixture containing 40 mM potassium phosphate buffer, pH 7.2, 30 μM β-endorphin, and enzyme was incubated for 15 minutes at 37° C. […] The β-endorphin peak was detected by absorbance at 214 nm using a Waters 484 detector. The reaction was quantitated by measuring the decrease in the β-endorphin peak area.

[8] = biological target: T4, Aβ1-40 (Homo sapiens, UniProt P05067); test: Rate of cleavage of Aβ1-40 by insulysin; format: biochemical; design: purchased Bachem (Torrance, Calif.); details: 25 μM Aβ1-40
Protocol: Purified insulysin was incubated with 25 μM Aβ1-40 in 40 mM potassium phosphate buffer, pH 7.2, at 37° C. for 1 hour. The reaction products were loaded onto a C4 reverse phase HPLC column and products resolved using a linear gradient of 5 to 75% acetonitrile over 65 minutes. Products were detected by absorbance at 214 nm using a Waters 484 detector and individual product peaks were collected manually. Product analysis was also conducted on an intact reaction mixture in which products were not resolved by HPLC. Products were identified by matrix assisted laser desorption ionization time of flight mass spectrometry (MALDI-TOF-MS). The reaction of insulysin with Aβ1-42 was conducted in a similar manner with products identified by MALDI-TOF-MS directly from reaction mixtures.
Product peaks corresponding to cleavage at the His^13-His^14, His^14-Gln^15, Phe^19-Phe^20 and Phe^20-Ala^21 positions were observed.

[9] = biological target: T4, Aβ1-40; test: Aβ1-40 deposition assay onto synthetic amyloid (synthaloid); format: biochemical; design: purchased Amersham (125I-Aβ); QCB/BioSource (synthaloid plates)
Protocol: A protocol was used where amyloid beta 1-40 (Aβ1-40) is initially deposited onto a 96 well microtiter plate. Radioactive (^125I labeled) Aβ1-40 is then added to the wells of this plate where it further adds to the Aβ1-40 deposited. This mimics the deposition of Aβ1-40 seen in the brains of Alzheimer patients.
96 well plates were pre-coated with Aβ1-40. In the control, 100 pM of ^125I-Aβ1-40 was deposited onto the pre-deposited Aβ1-40 plaque for three hours (lane 1). insulysin was added at concentrations of 500 ng, 50 ng and 5 ng to the wells along with ^125I-Aβ1-40 for three hours (lanes 2 to 4).
Beta amyloid deposition assays were conducted as described by Esler et. al. (Esler et al. (1997) Nat Biotech 15:268-263). Briefly, 96 well microtiter plates pre-coated with aggregated amyloid β1-40 (QCB/Biosource, Hopkinton, Mass.) were additionally coated with 200 μl of a 0.1% bovine serum albumin solution in 50 mM Tris-HCl, pH 7.5 for 20 minutes to prevent non-specific binding. For measuring Aβ1-40 deposition in the presence or absence of insulysin, a 150 μl solution of 0.1 nM 125I labeled Aβ1-40 in 50 mM Tris-HCl, pH 7.5 was added to the pre-coated well and incubated for four hours. When added, insulysin (0.5 to 500 ng) was placed directly in the well at zero time. The reaction was stopped by washing off excess undeposited radiolabeled Aβ1-40 with 50 mM Tris-HCl, pH 7.5. The radiolabel deposited onto the washed well was counted in a gamma counter. In a variation of this protocol, insulysin was preincubated with ^125 I-Aβ1-40 for 60 minutes and then added to the deposition assay.
During the progression of Alzheimer's disease monomeric Aβ peptides are deposited onto senile plaques. To test whether insulysin is able to prevent the deposition of the Aβ1-40 peptide, a model system was used in which the deposition of radiolabeled Aβ1-40 onto a synthetic amyloid plaque (synthaloid) is followed (Esler et al. (1999) Methods Enzymol 309:350-74). […]

T1 sequence (P35559 whole entry): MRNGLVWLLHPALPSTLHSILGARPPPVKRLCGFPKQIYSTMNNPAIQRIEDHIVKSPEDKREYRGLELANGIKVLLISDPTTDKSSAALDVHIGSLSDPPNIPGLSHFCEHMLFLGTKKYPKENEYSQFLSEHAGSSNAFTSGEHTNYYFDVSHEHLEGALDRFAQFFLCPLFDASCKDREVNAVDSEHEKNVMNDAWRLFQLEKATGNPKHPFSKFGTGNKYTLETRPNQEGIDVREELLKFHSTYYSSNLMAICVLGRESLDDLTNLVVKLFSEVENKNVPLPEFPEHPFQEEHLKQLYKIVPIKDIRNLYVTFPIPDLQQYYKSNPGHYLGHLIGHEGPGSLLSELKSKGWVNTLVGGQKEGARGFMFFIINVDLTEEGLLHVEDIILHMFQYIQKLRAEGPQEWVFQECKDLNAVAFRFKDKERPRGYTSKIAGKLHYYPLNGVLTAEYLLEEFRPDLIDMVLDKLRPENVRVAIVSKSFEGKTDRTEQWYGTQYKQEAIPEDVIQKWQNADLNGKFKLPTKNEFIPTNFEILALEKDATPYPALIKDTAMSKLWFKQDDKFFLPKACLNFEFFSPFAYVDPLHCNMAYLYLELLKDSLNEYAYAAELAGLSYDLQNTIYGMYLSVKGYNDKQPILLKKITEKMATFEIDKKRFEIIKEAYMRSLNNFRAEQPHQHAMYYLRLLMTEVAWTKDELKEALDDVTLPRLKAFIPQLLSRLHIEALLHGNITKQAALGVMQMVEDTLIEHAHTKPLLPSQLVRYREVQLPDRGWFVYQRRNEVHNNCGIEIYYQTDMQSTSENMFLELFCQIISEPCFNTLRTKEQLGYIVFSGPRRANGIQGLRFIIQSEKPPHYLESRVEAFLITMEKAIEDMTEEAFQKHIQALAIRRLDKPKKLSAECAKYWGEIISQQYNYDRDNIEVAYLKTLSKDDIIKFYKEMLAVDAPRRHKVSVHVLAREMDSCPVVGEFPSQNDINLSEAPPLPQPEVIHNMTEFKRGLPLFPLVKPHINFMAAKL

Aβ1-40: amyloid beta peptide 1-40 (SEQ ID NO: 12) obtained from Bachem [reference compound]
loss of cortical neurons ([1]; 30 μM Aβ1-40, 48 hrs): approximately 70%

C[C@]12CC[C@@H]3c4ccc(O)cc4CC[C@H]3[C@@H]1CC[C@@H]2O [estrogen, 17β-estradiol]
increase in neprilysin activity in the hippocampus over ovariectomized rats not treated with estrogen [2]: ~30% | expression of neprilysin mRNA in the hippocampus, higher than ovariectomized rats without estrogen [3]: about 300%

beta endorphin: peptide, insulysin substrate, found to increase insulysin enzymatic activity
effect on insulysin activity [4]: increase insulysin enzymatic activity

dynorphin
effect on insulysin activity [4]: increase insulysin enzymatic activity

insulysin: His6-tagged recombinant rat insulysin (insulin degrading enzyme) expressed in Sf9 cells with baculovirus, purified
Aβ1-42 induced cell death of hippocampal cells ([5]; 10 μM Aβ1-42 (initially monomeric), 400 ng insulin degrading enzyme, 24 hrs): prevented Aβ1-42 induced cell death | neuronal survival ([5]; insulysin added with 25 μM Aβ1-42, up to 12 hours): survival was close to that seen in the control untreated cells | release of radioactivity from deposited 125I-Aβ1-40 [6]: no radioactivity was released | specific activity [7]: 2.6 μmols/min/mg | rate of cleavage of Aβ1-40 [8]: 1.2 μmols/min/mg enzyme | inhibition of deposition of 125I-Aβ1-40 ([9]; 50 ng of insulysin, 100 pM 125I-Aβ1-40, three hours): 50% | amount able to prevent the deposition of radiolabeled Aβ1-40 ([9]; insulysin added with 125I-Aβ1-40 (0.1 nM), 4 hr): 50 ng | amount able to prevent the deposition of radiolabeled Aβ1-40 ([9]; insulysin preincubated with 125I-Aβ1-40 for 60 minutes, 4 hr deposition): 50 ng | amount effective in sparing the neurotoxic effects of Aβ1-42 ([1]; 25 μM Aβ1-42, added simultaneously, 48 hrs): 500 ng | amount effective in sparing the neurotoxic effects of Aβ1-40 ([1]; 30 μM Aβ1-40, added simultaneously, 48 hrs): 50 ng
